Results taken from US9655888B2, “Tricyclic alkene derivatives as HIV attachment inhibitors” (priority 2012, dated 2017).
Where two headings read alike, the source gives them in different places.

System: HIV-1 LAI envelope single-round infectious reporter virus
Assay: Single-round infectious HIV-1 LAI luciferase reporter virus infection of MT2 cells
Format: cell-based
Conditions: Human immunodeficiency virus 1, MT2, 72 h
Source text: • Virus production—Human embryonic Kidney cell line, 293T (HEK 293T), was propagated in Dulbecco's Modified Eagle Medium (Invitrogen, Carlsbad, Calif.) containing 10% fetal bovine serum (FBS, Sigma, St. Louis, Mo.). The human T-cell leukemia cell MT2 (AIDS Research and Reference Reagent Program, Cat. 237) was propagated in RPMI 1640 (Invitrogen, Carlsbad, Calif.) containing 10% fetal bovine serum (FBS, Hyclone, Logan, Utah) • Virus infection—Single-round infectious reporter virus was produced by co-transfecting HEK 293T cells with plasmide expressing the HIV-1 LAI envelope along with a plasmid containing an HIV-1 LAI proviral cDNA with the envelope gene replaced by a firefly luciferase reporter gene (Chen et al., Ref 41). Transfections were performed using lipofectAMINE PLUS reagent as described by the manufacturer (Invitrogen, Carlsbad, Calif.). Experimental Procedure • 1. MT2 cells were plated in black, 384 well plates at a cell density of 5×10^3 cells per well in 25 μl RPMI 1640 containing 10% FBS. • 2. Compound (diluted in dimethylsulfoxide and growth medium) was added to cells at 12.5 μl/well, so that the final assay concentration would be ≦50 nM. • 3. 12.5 μl of single-round infectious reporter virus in Dulbecco's Modified Eagle Medium was added to the plated cells and compound at an approximate multiplicity of infection (MOI) of 0.01, resulting in a final volume of 50 μl per well. • 4. Virus-infected cells were incubated at 37 degrees Celsius in a CO2 incubator and harvested 72 h after infection. • 5. Viral infection was monitored by measuring luciferase expression in the infected cells using a luciferase reporter gene assay kit (Steady-Glo, Promega, Madison, Wis.) as described by the manufacturer. Luciferase activity was then quantified by measuring luminescence using an EnVision Multilabel Plate Readers (PerkinElmer, Waltham, Mass.). • 6. The percent inhibition for each compound was calculated by quantifying the level of luciferase expression in cells infected in the presence of each compound as a percentage of that observed for cells infected in the absence of compound and subtracting such a determined value from 100. • 7. An EC50 provides a method for comparing the antiviral potency of the compounds of the invention. The effective concentration for fifty percent inhibition (EC50) was calculated with the Microsoft Excel Xlfit curve fitting software. For each compound, curves were generated from percent inhibition calculated at 10 different concentrations by using a four parameter logistic model (model 205). Table 1 is the key for the data in Table 2.

[1] = read-out: EC50 Group from Table 1

`COc1cnc(-n2cnc(C)n2)c2[nH]cc(C(=O)C(=O)N3CCC(=C4c5ccc(Cl)cc5CCc5cccnc54)CC3)c12` [Compound 1010] gave an EC50 [1] of under 500 nM.

In the case of `COc1cnc(-n2cnc(C)n2)c2[nH]cc(C(=O)C(=O)N3CCC(=C4c5ccccc5CCc5ccccc54)CC3)c12` [Compound 1009], the EC50 is reported as 3.72 nM and the EC50 [1] is reported as under 500 nM.

`COc1ccc(Br)c2[nH]cc(C(=O)C(=O)N3CCC(=C4c5ccccc5CCc5ccccc54)CC3)c12` [Compound 1006] gave an EC50 of 95.3 nM and an EC50 [1] of under 500 nM.

For `COc1cnc(Cl)c2[nH]cc(C(=O)C(=O)N3CCC(=C4c5ccc(Cl)cc5CCc5cccnc54)CC3)c12` [Compound 1002], the EC50 [1] was under 500 nM.

For `COc1cnc(-n2cncn2)c2[nH]cc(C(=O)C(=O)N3CCC(=C4c5ccccc5CCc5ccccc54)CC3)c12` [Compound 1005], the EC50 [1] was under 500 nM.

`O=C(C(=O)N1CCC(=C2c3ccccc3CCc3ccccc32)CC1)c1c[nH]c2c(Br)ccc(F)c12` [Compound 1007] was tested, and the EC50 [1] was over 500 nM.

`O=C(C(=O)N1CCC(=C2c3ccc(Cl)cc3CCc3cccnc32)CC1)c1c[nH]c2c(Br)ccc(F)c12` [Compound 1008] was tested, and the EC50 [1] was over 500 nM.

For `COc1cnc(-n2cnc(C)n2)c2[nH]cc(C(=O)C(=O)N3CCC(=C4c5ccccc5C=Cc5ccccc54)CC3)c12` [Compound 1001], the EC50 was 0.28 nM and the EC50 [1] was under 500 nM.

`O=C(C(=O)N1CCC(=C2c3ccccc3CCc3ccccc32)CC1)c1c[nH]c2ccccc12` [Compound 1003] was tested, and the EC50 was 692 nM and the EC50 [1] was over 500 nM.

Molecule `COc1cnc(Cl)c2[nH]cc(C(=O)C(=O)N3CCC(=C4c5ccccc5CCc5ccccc54)CC3)c12` [Compound 1004] has an EC50 [1] of under 500 nM.
